Measurements taken from ChEMBL document CHEMBL1130736, “Syntheses of new modified Phe-Pro peptides. Use of proline replacements in potential HIV inhibitors” (Bioorg Med Chem Lett, 1998).
Peptide text beside a SMILES is read from it. * marks the point of attachment. Boc = CC(C)(C)OC(=O)*

Legend:
[1] = Partition coefficient (logP); assay type: physicochemical; conditions: octanol/water
[2] = system: MT4; assay: Concentration required to inhibit syncytia formation by 50% in HIV infected HIV-BRU MT-4 cells; assay type: functional, cell-based, Homo sapiens
[3] = system: MT4; assay: Concentration required to cause 50% death of uninfected MT-4 cells; assay type: functional; conditions: Homo sapiens
[4] = Homo sapiens, MT4, read-out: IC50

Structure (SMILES) | logP [1] | IC50 ([2]; mt4) | CC50 [3] | IC50 [2, 4]
CC(C)(C)OC(=O)N[C@@H](Cc1ccccc1)C(=O)N1CCC(O)C1 (stereo not given in full) | 3.15 |  | 100 µM | 50 µM
O=C1CCN(C(=O)[C@H](Cc2ccccc2)NC(=O)N(c2ccccc2)c2ccccc2)C1 | 4.86 | Not Active | > 100 µM | 
CCCCCCCCOC(=O)N[C@@H](Cc1ccccc1)C(=O)N1CCC(=O)C1 | 5.38 | Not Active | 50 µM | 
CC(C)(C)OC(=O)N[C@@H](Cc1ccccc1)C(=O)N1CCC(=O)C1 | 3.97 |  | 100 µM | 10 µM
CN(C(=O)N[C@@H](Cc1ccccc1)C(=O)N1CCC(=O)C1)c1ccccc1 | 3.33 | Not Active | 50 µM | 
O=C1CCN(C(=O)[C@H](Cc2ccccc2)NC(=O)OCc2ccccc2)C1 | 3.97 |  | 50 µM | 1 µM
CC(C)(C)OC(=O)N[C@@H](Cc1ccccc1)C(=O)N1CCC[C@H]1C(=O)O (Boc-Phe-Pro-OH) | 3.96 | Not Active | > 100 µM | 

The next lines start with results.

logP [1] | Structure (SMILES) | IC50 ([2]; mt4) | CC50 [3] | IC50 [2, 4]
3.17 | O=C1CCN(C(=O)[C@H](Cc2ccccc2)NC(=O)c2ccccc2)C1 | Not Active | 50 µM | 
3.44 | O=C1CCN(C(=O)[C@H](Cc2ccccc2)NC(=O)c2ccc3ccccc3n2)C1 |  | > 100 µM | 10 µM
2.31 | O=C1CCN(C(=O)[C@H](Cc2ccccc2)NC(=O)c2cccnc2)C1 |  | > 100 µM | 0.1 µM
